Experimental data from US11702411B2, “Pyridine, pyrazine, and triazine compounds as allosteric SHP2 inhibitors” (Revolution Medicines, Inc., priority 2017, dated 2023).
pIC50: −log10 of the molar value.

What follows are compounds tested against SHP2 (Homo sapiens (Human), UniProt Q06124) (assay: SHP2 allosteric inhibition assay (DiFMUP prompt fluorescence, activating peptide)). Details: 0.2 nM SHP2, 0.5 μM activating peptide, DiFMUP substrate; read-out: SHP2 Allosteric IC50.
Type: biochemical
From the text: Without wishing to be bound by theory, SHP is allosterically activated through binding of bis-tyrosyl-phosphorylated peptides to its Src Homology 2 (SH2) domains. The latter activation step leads to the release of the auto-inhibitory interface of SHP2, which in turn renders the SHP2 protein tyrosine phosphatase (PTP) active and available for substrate recognition and reaction catalysis. The catalytic activity of SHP2 was monitored using the surrogate substrate DiFMUP in a prompt fluorescence assay format.
The phosphatase reactions were performed at room temperature in 96-well black polystyrene plate, flat bottom, non-binding surface (Corning, Cat #3650) using a final reaction volume of 100 μL and the following assay buffer conditions: 50 mM HEPES, pH 7.2, 100 mM NaCl, 0.5 mM EDTA, 0.05% P-20, 1 mM DTT.
The inhibition of SHP2 by compounds of the present disclosure (concentrations varying from 0.00005-10 μM) was monitored using an assay in which 0.2 nM of SHP2 was incubated with 0.5 μM of Activating Peptide 1 (sequence: H2N-LN(pY)IDLDLV(dPEG8)LST(pY)ASINFQK-amide) or Activating Peptide 2 (sequence: H2N-LN(pY)AQLWHA(dPEG8)LTI(pY)ATIRRF-amide). After 30-60-minutes incubation at 25° C., the surrogate substrate DiFMUP (Invitrogen, Cat #D6567) was added to the reaction and activity was determined by a kinetic read using a microplate reader (Envision, Perkin-Elmer or Spectramax M5, Molecular Devices). The excitation and emission wavelengths were 340 nm and 450 nm, respectively. Initial rates were determined from a linear fit of the data, and the inhibitor dose response curves were analyzed using normalized IC50 regression curve fitting with control based normalization.

Sequence of SHP2 (Q06124 whole entry): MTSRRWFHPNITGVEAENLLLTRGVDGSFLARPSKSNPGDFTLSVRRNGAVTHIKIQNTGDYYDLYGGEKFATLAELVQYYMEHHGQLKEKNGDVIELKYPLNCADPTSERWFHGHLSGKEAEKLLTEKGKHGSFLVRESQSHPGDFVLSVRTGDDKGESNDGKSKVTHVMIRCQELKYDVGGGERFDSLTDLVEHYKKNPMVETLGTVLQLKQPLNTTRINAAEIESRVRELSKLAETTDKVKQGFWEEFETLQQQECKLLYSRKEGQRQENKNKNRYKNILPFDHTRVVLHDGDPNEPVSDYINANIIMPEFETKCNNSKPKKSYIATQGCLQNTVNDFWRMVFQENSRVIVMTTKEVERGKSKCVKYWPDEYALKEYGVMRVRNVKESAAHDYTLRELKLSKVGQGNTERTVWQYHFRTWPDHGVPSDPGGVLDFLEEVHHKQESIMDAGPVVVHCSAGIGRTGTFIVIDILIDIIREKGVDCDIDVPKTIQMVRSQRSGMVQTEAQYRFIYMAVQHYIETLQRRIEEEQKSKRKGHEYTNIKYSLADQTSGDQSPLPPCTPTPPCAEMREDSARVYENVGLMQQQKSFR

SMILES	pIC50
C[C@@H]1OCC2(CCN(c3ncc(-c4cccc(Cl)c4Cl)nc3CO)CC2)[C@@H]1N [Compound 21, {3-[(3S,4S)-4-amino-3-methyl-2-oxa-8-azaspiro[4.5]decan-8-yl]-6-(2,3-dichlorophenyl)pyrazin-2-yl}methanol]	≥ 7.30
C[C@@H]1OCC2(CCN(c3ncc(Sc4ccnc(NC5CCOCC5)c4Cl)nc3CO)CC2)[C@@H]1N [Compound 27, {3-[(3S,4S)-4-amino-3-methyl-2-oxa-8-azaspiro[4.5]decan-8-yl]-6-({3-chloro-2-[(oxan-4-yl)amino]pyridin-4-yl}sulfanyl)pyrazin-2-yl}methanol]	≥ 7.30
COc1nccc(Sc2cnc(N3CCC4(CC3)CO[C@@H](C)[C@H]4N)c(CO)n2)c1Cl [Compound 24, {3-[(3S,4S)-4-amino-3-methyl-2-oxa-8-azaspiro[4.5]decan-8-yl]-6-[(3-chloro-2-methoxypyridin-4-yl)sulfanyl]pyrazin-2-yl}methanol]	≥ 7.30
C[C@@H]1OCC2(CCN(c3ncc(Sc4cccc(C(=O)N(C)C)c4Cl)nc3CO)CC2)[C@@H]1N [Compound 28, 3-({5-[(3S,4S)-4-amino-3-methyl-2-oxa-8-azaspiro[4.5]decan-8-yl]-6-(hydroxymethyl)pyrazin-2-yl}sulfanyl)-2-chloro-N,N-dimethylbenzamide]	≥ 7.30
